Laboratory results as given in ChEMBL document CHEMBL1201862, “PubChem BioAssay data set” (2004).
Active and inactive are the calls of the source.

Tests used:
[1] = ZM109 Env clade C HIV-1 fusion inhibitors, dose response, HeLa effector, CEM target cells, luciferase, cherry-pick (AID 652058); assay type: functional, cell-based
Paired box protein Pax-8 = Paired box protein Pax-8 (Homo sapiens, UniProt Q06710); experiment: inhibitors of PAX8-driven TPO luciferase reporter, dose response, RMG-I cells, cherry-pick (AID 687027); assay type: functional, cell-based;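 also: luciferase reporter driven by Pax8 target thyroperoxidase promoter measured by SteadyGlo luminescence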
Chain of Paired box protein Pax-8 (Q06710 whole entry): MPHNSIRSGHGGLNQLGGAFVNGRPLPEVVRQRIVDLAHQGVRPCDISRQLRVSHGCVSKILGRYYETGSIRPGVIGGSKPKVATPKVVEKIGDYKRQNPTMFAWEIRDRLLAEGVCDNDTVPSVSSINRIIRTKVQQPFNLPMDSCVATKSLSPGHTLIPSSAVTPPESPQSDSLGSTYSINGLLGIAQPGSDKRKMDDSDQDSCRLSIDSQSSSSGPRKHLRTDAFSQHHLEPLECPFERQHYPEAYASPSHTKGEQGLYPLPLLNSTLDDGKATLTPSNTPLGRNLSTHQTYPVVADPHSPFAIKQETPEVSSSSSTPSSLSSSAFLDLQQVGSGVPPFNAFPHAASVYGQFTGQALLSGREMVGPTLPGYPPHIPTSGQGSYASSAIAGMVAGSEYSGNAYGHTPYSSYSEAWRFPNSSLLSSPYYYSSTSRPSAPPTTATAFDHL

[2] = NIH:OVCAR-3 ovarian cancer cell cytotoxicity, dose response, PAX8 inhibitor project, plate reader, dry powder samples (AID 743044); assay type: functional, cell-based
[3] = cytotoxicity in OVCAR8 ovarian cancer cells, dose response, PAX8 project, cell-based, plate reader, dry powder samples (AID 743197); assay type: functional; conditions: OVCAR-8
[4] = inhibitors of HIV Env-driven cell fusion, dose response, cherry-pick (AID 652057); assay type: functional, cell-based
[5] = inhibitors of clade B AD8 Env fusion, dose response, cell-based, cherry-pick (AID 652062); assay type: functional;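 also: luciferase signal from cell-cell fusion driven by HIV-1 clade B AD8 Env; potency is for inhibitors of fusion seen as a drop in luminescence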
[6] = off-target signal loss in HeLa-CEM21 co-culture – HeLa F-luc CTL cells, cherry-picked, counter-screen for HIV-1 Env fusion inhibitor project, dose response (AID 652040); assay type: functional, cell-based;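 also: potency for signal decrease marking cytotoxic or nonspecific inhibition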
[7] = inhibitors of intracellular T. cruzi replication, confirmation, NIH3T3 host cells, beta-gal luminescence (AID 2044); assay type: functional, cell-based;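 also: intracellular parasites grown in NIH/3T3 mouse fibroblasts as host cells; luminescent beta-galactosidase reporter signal from transgenic T. cruzi replicating inside host cells; inhibitors lower the luminescence signal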
[8] = cytotoxicity toward NIH3T3 fibroblasts, dose response, counter-screen, cell-based, ATP luminescence, mouse fibroblasts (AID 2010); assay type: functional;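 also: cells exposed to compound for about 90 hours before reading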
[9] = Luminescence Cell-Based Dose Retest to Confirm Inhibitors of Cancer Stem Cells. [Related pubchem assays (depositor defined):AID2717, AID2721]; assay type: functional; conditions: Homo sapiens
[10] = target: Heat shock protein HSP 90-alpha (Homo sapiens, UniProt P07900); assay type: functional, organism-based
[11] = target: T1, Microphthalmia-associated transcription factor (Homo sapiens, UniProt O75030); experiment: TRPM1 promoter luciferase signal decrease, dose response, MITF inhibitor project, cell-based, SK-MEL-5, cherry-picked, set 3 (AID 493073); assay type: functional
T1 sequence (O75030 whole entry): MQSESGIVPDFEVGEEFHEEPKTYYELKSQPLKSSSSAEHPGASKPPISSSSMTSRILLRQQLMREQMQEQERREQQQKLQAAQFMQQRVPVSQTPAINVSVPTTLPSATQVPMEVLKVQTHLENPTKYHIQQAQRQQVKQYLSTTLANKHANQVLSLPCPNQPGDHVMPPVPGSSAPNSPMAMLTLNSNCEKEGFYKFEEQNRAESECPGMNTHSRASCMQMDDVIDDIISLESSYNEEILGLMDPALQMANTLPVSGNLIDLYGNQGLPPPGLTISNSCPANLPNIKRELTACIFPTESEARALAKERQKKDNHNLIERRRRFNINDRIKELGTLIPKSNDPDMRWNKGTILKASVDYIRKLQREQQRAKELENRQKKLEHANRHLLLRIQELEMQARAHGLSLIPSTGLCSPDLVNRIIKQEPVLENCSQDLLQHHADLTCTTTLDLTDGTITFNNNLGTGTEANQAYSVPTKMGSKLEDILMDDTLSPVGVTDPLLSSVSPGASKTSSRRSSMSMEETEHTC

Cytochrome P450 2C9 = Cytochrome P450 2C9 (Homo sapiens, UniProt P11712)
Chain of Cytochrome P450 2C9 (P11712 whole entry): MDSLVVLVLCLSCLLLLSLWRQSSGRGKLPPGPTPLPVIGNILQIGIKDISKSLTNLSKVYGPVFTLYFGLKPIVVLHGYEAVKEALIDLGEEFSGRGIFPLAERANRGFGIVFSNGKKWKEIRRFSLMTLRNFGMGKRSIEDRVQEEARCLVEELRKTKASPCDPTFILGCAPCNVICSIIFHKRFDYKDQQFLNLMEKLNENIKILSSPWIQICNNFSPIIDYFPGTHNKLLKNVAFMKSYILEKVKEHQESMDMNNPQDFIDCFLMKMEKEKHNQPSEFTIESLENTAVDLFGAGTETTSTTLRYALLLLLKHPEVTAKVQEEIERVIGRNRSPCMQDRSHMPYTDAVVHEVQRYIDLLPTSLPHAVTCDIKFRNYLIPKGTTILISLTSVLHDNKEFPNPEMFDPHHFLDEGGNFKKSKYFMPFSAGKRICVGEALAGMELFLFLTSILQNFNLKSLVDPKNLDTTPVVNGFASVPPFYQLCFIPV

Cytochrome P450 2C19 = Cytochrome P450 2C19 (Homo sapiens, UniProt P33261); experiment: Cytochrome panel assay with activity outcomes. Panel member name: p450-cyp2c19 Compounds with AC50 equal or less than 10 uM are considered active; assay type: functional
Chain of Cytochrome P450 2C19 (P33261 whole entry): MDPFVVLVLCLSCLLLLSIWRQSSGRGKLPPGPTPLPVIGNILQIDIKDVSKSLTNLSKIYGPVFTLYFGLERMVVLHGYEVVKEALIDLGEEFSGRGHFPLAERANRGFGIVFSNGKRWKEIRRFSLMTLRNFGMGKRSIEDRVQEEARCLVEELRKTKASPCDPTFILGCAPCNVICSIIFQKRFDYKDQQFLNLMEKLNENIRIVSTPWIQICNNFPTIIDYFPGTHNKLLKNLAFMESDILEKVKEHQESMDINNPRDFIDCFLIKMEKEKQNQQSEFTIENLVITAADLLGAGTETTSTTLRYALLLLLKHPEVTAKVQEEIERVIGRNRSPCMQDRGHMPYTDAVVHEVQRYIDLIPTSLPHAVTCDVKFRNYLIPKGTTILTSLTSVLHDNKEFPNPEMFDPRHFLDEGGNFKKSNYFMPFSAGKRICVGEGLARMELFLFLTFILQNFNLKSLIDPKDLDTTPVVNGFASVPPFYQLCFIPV

Cytochrome P450 3A4 = Cytochrome P450 3A4 (Homo sapiens, UniProt P08684);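 also: CYP3A4 tested as one member of a cytochrome P450 panel screen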
Chain of Cytochrome P450 3A4 (P08684 whole entry): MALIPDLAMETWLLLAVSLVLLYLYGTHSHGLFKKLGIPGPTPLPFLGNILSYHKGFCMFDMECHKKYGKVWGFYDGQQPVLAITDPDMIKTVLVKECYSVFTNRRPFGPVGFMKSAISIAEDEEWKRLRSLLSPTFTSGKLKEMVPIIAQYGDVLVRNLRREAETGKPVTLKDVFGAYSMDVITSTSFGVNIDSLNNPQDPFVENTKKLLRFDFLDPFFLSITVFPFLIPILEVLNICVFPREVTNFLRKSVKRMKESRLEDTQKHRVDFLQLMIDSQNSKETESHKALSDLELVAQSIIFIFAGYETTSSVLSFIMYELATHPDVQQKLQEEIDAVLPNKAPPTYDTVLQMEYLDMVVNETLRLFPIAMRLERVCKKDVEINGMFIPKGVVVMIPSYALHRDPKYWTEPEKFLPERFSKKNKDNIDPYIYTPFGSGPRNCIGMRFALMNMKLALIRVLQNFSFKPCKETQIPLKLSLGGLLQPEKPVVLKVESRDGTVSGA

[12] = target: T2, Corticotropin-releasing factor receptor 2/Corticotropin-releasing factor-binding protein (Homo sapiens, UniProt P24387+Q13324); experiment: Dose Response confirmation of uHTS hits for small molecule antagonists of the CRF-binding protein and CRF-R2 receptor complex.; assay type: functional; conditions: read-out: IC50_Mean
T2 sequence (Q13324 whole entry): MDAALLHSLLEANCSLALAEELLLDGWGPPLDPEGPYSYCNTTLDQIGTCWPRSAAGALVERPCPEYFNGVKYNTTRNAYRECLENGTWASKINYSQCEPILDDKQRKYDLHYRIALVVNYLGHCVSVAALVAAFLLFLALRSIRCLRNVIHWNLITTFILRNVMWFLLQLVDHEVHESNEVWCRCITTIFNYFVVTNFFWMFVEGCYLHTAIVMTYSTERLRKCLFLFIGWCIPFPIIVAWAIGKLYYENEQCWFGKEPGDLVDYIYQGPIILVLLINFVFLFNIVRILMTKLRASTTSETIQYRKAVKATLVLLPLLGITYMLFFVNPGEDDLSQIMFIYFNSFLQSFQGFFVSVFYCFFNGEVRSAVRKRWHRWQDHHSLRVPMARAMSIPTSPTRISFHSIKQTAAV
T2 sequence (P24387 whole entry): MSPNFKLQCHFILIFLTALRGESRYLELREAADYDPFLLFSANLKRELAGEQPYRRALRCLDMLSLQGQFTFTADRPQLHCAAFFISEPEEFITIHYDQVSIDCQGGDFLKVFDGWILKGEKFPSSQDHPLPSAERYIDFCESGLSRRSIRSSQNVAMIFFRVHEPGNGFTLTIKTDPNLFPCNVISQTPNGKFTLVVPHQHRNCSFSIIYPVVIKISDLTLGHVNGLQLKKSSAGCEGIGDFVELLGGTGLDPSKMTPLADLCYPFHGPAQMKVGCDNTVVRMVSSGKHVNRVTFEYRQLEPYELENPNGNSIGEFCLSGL

[13] = target: T2, Corticotropin-releasing factor receptor 2/Corticotropin-releasing factor-binding protein; experiment: activators of CRF receptor 2 with binding protein – uHTS hits, confirmation (AID 602473); assay type: functional; conditions: read-out: EC50_Mean
[14] = CRF-BP/CRF-R2 complex antagonists, dose response, cell-based, uHTS hits, 384-well (AID 651639); assay type: functional, Homo sapiens; conditions: read-out: IC50_Mean
[15] = non-specific cell cytotoxicity, dose response, cytotoxicity control for PAX8 inhibitor project, plate reader, dry powder samples (AID 743021); assay type: functional, cell-based

For `O=C(Cc1ccccc1)N[C@@H]1C=C[C@H](CC(=O)N2CCCCC2)O[C@@H]1CO`, which AC50 [1] is on record?
Its AC50 is 28.7 µM (active).

For `C[C@@H]1CN([C@H](C)CO)C(=O)c2cc(NC(=O)Nc3ccc(F)cc3)ccc2O[C@@H](C)CCCCO[C@@H]1CN(C)Cc1ccc(Cl)c(Cl)c1`, which AC50 (Paired box protein Pax-8) is on record?
Its AC50 is 8.1 µM (active).

What about the AC50 [2] of the same molecule?
Its AC50 is 20 µM (active).

And the AC50 [3]?
The AC50 was 38.7 µM (active).

For `C[C@H](CO)N1C[C@H](C)[C@H](CN(C)Cc2ccc(F)cc2)OCc2ccccc2-c2ccccc2C1=O`, which AC50 [4] is on record?
Its AC50 is 0.557 µM (active).

And the AC50 [1]?
Its AC50 is 1.39 µM (active).

What about the AC50 [5] of the same molecule?
The AC50 was 3.77 µM (active).

With `Cc1nc2ccccc2n1CC(=O)NCc1ccccc1` as the molecule, how does the AC50 [6] read?
Its AC50 is > 70 µM (inactive).

What about the AC50 [5] of the same molecule?
The AC50 was 16.8 µM (active).

For `CCc1ccc(-c2cc(C(=O)N3N=C(C(F)F)CC3(O)C(F)F)c3ccccc3n2)cc1` (configuration not stated), which EC50 [7] is on record?
The EC50 was 2.9 µM (active).

And the EC50 [8]?
Its EC50 is > 60 µM (not active).

And the AC50 [9]?
Its AC50 is 5.74 µM (active).

What about the AC50 [10] of the same molecule?
The AC50 was 4.04 µM (active).

Which results are given for `COc1ccccc1NS(=O)(=O)c1cccc(C(=O)N/N=C/c2ccc([N+](=O)[O-])o2)c1`?
AC50 [11]: 4.3 µM (active); AC50 (Paired box protein Pax-8): 6.29 µM (active)

For `CC1CCN(C(=O)C2CCN(S(=O)(=O)c3cccc4nonc34)CC2)CC1`, which AC50 (Cytochrome P450 2C9) is on record?
The AC50 was “inconclusive”.

Which AC50 (Cytochrome P450 2C19) does the source give for `C/C(Cl)=C\Cn1c(N2CCCC2)nc2c1c(=O)[nH]c(=O)n2C` here?
Its AC50 is “inconclusive”.

What about the AC50 (Cytochrome P450 3A4) of the same molecule?
The AC50 was 15.8 µM (inconclusive).

What about the AC50 (Cytochrome P450 2C9) of the same molecule?
The AC50 was “inconclusive”.

For `COc1cccc2ccc(CC(O)(c3ccccc3)c3ccccc3)nc12`, which IC50 [12] is on record?
Its IC50 is < 0.368 µM (active).

And the EC50 [13]?
Its EC50 is > 53 µM (inactive).

What about the IC50 [14] of the same molecule?
The IC50 was > 20 µM (inactive).

What does the source list for `CCN(CC)S(=O)(=O)c1ccc(Cl)c(NC(=O)c2cc(Cl)cc(Cl)c2)c1`?
IC50 [12]: 3.26 µM (active); EC50 [13]: > 53 µM (inactive); IC50 [14]: > 20 µM (inactive)

With `COC(=O)C1=C(SC)N(c2ccccc2)C(c2ccccc2)CC1=O` (configuration not stated) as the molecule, how does the AC50 (Paired box protein Pax-8) read?
Its AC50 is 54.1 µM (active).

What about the AC50 [15] of the same molecule?
Its AC50 is 62 µM (active).
